The C3SDB collision cross section collection
Where “and” joins values, the source holds several entries; their conditions need not be identical. Equal values may be shown once.

Columns and labels:
[1] = instrument: DT, single field, calibrated with ESI Low Concentration Tuning Mix (Agilent)
[2] = instrument: TW, calibrated with polyalanine and drug standards

Row | Structure (SMILES) | collision cross section (N2) ([1]; [M+Na]+) | collision cross section (N2) ([2]; [M+H]+) | collision cross section (N2) ([1]; [M-H]-) | collision cross section (N2) ([2]; [M+Na]+) | collision cross section (N2) ([1]; [M+H]+) | collision cross section (N2) ([1]; [M+Na-2H]-) | collision cross section (N2) ([1]; [M+K]+)
1 | NC(=O)CCCCC1CCSS1 (centres undefined) [LIPOAMIDE] | 150.4 Å² | 139.3 Å² |  |  |  |  | 
2 | CC(=O)N1CCC[C@H]1C(=O)O [N-ACETYLPROLINE] | 140.3 Å² |  | 133.7 Å² | 136.9 Å² |  |  | 
3 | CC(=O)NCCc1c[nH]c2ccc(O)cc12 [N-ACETYLSEROTONIN] | 153.5 Å² |  | 150.5 Å² |  | 149.6 Å² |  | 
4 | CC(=O)NC(Cc1c[nH]c2ccccc12)C(=O)O (centres undefined) [N-ACETYLTRYPTOPHAN] | 158.5 Å² |  | 158.3 Å² |  | 153.8 Å² |  | 
5 | CC(=O)NC(CCCCN)C(=O)O (stereo not drawn) [N-ALPHA-ACETYLLYSINE] | 144.4 Å² |  | 145 Å² |  | 145.5 Å² |  | 
6 | CN[C@H](CC(=O)O)C(=O)O [N-METHYLASPARTATE] | 134.7 Å² |  | 124 Å² |  | 130 Å² |  | 
7 | NC(=O)c1ccc[n+]([C@@H]2O[C@H](COP(=O)(O)OP(=O)(O)OC[C@H]3O[C@@H](n4cnc5c(=O)nc[nH]c54)[C@H](O)[C@@H]3O)[C@@H](O)[C@H]2O)c1 [NICOTINAMIDE HYPOXANTHINE DINUCLEOTIDE] | 229.7 Å² |  | 217.7 Å² |  | 221.1 Å² | 217.2 Å² | 
8 | CCC[C@H](N)C(=O)O [NORVALINE] | 133.1 Å² |  | 142 Å² |  | 120.9 Å² |  | 
9 | CC[C@H](NC(=O)CC[C@H]([NH3+])C(=O)[O-])C(=O)NCC(=O)[O-] [OPHTHALMATE] | 163.4 Å² |  | 160.9 Å² |  | 164.5 Å² | 163.7 Å² | 
10 | O=C([O-])c1cc(=O)[nH]c(=O)[nH]1 [OROTATE] |  |  | 121.5 Å² |  |  |  | 
11 | O=C1CC[C@@H](C(=O)O)N1 [OXOPROLINE] |  |  | 124.1 Å² |  | 130.3 Å² |  | 
12 | O=C(O)Cc1ccc(O)cc1 [P-HYDROXYPHENYLACETATE] |  |  | 128.6 Å² |  |  |  | 
13 | OC[C@H]1O[C@H](OC[C@H]2OC(O)(CO)[C@@H](O)[C@@H]2O)[C@H](O)[C@@H](O)[C@@H]1O (some centres undefined) [PALATINOSE] | 176 Å² |  | 177.9 Å² |  |  |  | 177.6 Å²
14 | N[C@@H](Cc1ccccc1)C(=O)O [PHENYLALANINE] | 138.3 Å² |  | 139.4 Å² |  |  |  | 
15 | Cc1ncc(CO)c(CN)c1O [PYRIDOXAMINE] | 144.1 Å² |  | 133.9 Å² |  | 133.7 Å² |  | 
16 | Oc1ccccc1O [PYROCATECHOL] |  |  | 114.5 Å² |  |  |  | 

Row | Structure (SMILES) | collision cross section (N2) ([1]; [M+Na]+) | collision cross section (N2) ([2]; [M+H]+) | collision cross section (N2) ([1]; [M-H]-) | collision cross section (N2) ([2]; [M+Na]+) | collision cross section (N2) ([1]; [M+H]+) | collision cross section (N2) ([1]; [M+Na-2H]-) | collision cross section (N2) ([1]; [M+K]+)
17 | O=C1CC[C@@H](C(=O)O)N1 [PYROGLUTAMATE] |  |  |  |  | 130.1 Å² |  | 
18 | CC1=C(/C=C/C(C)=C/C=C/C(C)=C/C(=O)O)C(C)(C)CCC1 [RETINOATE] | 181.9 Å² |  |  |  |  |  | 
19 | Nc1ncnc2c1ncn2[C@@H]1O[C@H](CSCC[C@H](N)C(=O)O)[C@@H](O)[C@H]1O [S-ADENOSYLHOMOCYSTEINE] | 189 Å² |  | 186.4 Å² |  | 182.9 Å² | 180.3 Å² | 
20 | C[S+](CC[C@H](N)C(=O)[O-])C[C@H]1O[C@@H](n2cnc3c(N)ncnc32)[C@H](O)[C@@H]1O (some centres undefined) [S-ADENOSYLMETHIONINE] |  |  |  |  | 185.7 Å² |  | 
21 | CCCCCCSC[C@H](NC(=O)CC[C@H](N)C(=O)O)C(=O)NCC(=O)O [S-HEXYL-GLUTATHIONE] | 200.9 Å² |  | 189 Å² |  | 200.5 Å² | 192.4 Å² | 
22 | O=C(O)[C@@H](O)[C@@H](O)[C@H](O)[C@@H](O)C(=O)O [SACCHARATE] | 148.3 Å² |  | 133.3 Å² |  |  | 137.3 Å² | 148.8 Å²
23 | O=C(O)CCCCCCCCC(=O)O [SEBACATE] | 152.7 Å² |  |  |  |  | 146 Å² | 
24 | C[Se]CCC(N)C(=O)O (centres undefined) [SELENOMETHIONINE] | 138.1 Å² |  | 149.9 Å² |  | 135.2 Å² |  | 
25 | NCCc1c[nH]c2ccc(O)cc12 [SEROTONIN] | 146.9 Å² |  |  |  |  |  | 
26 | O=C(O)C1=C[C@@H](O)[C@@H](O)[C@H](O)C1 [SHIKIMATE] |  |  | 136.3 Å² |  |  |  | 
27 | Cc1ncc(C[n+]2csc(CCOP(=O)(O)O)c2C)c(N)n1 [THIAMINE MONOPHOSPHATE] | 176.9 Å² |  |  |  | 171 Å² | 174.3 Å² and 180.2 Å² | 
28 | N[C@@H](Cc1ccc(O)cc1)C(=O)O [TYROSINE] | 143.6 Å² |  | 143.8 Å² |  | 145.8 Å² |  | 
29 | O=c1cc[nH]c(=O)[nH]1 [URACIL] |  |  | 112.9 Å² |  |  |  | 
30 | O=c1ccn([C@@H]2O[C@H](COP(=O)(O)OP(=O)(O)O)[C@@H](O)[C@H]2O)c(=O)[nH]1 [URIDINE 5'-DIPHOSPHATE] | 178.5 Å² and 181.7 Å² |  | 172.9 Å² |  | 176.9 Å² | 178.6 Å² | 
31 | O=C(O)[C@H]1O[C@H](OP(=O)(O)OP(=O)(O)OC[C@H]2O[C@@H](n3ccc(=O)[nH]c3=O)[C@H](O)[C@@H]2O)[C@H](O)[C@@H](O)[C@@H]1O [URIDINE DIPHOSPHATE GLUCURONIC ACID] | 211 Å² |  | 211.9 Å² |  |  | 204.6 Å² | 
32 | C[C@H](CCC(=O)O)[C@H]1CC[C@H]2[C@@H]3[C@@H](O)C[C@@H]4C[C@H](O)CC[C@]4(C)[C@H]3CC[C@]12C [URSODEOXYCHOLATE] | 198.7 Å² |  | 200.9 Å² |  |  |  | 
